Test results from patent publication US11912794B2, “Modulation of structured polypeptide specificity” (BicycleRD Limited, priority 2011, dated 2024).
Numbered stars: 1 amine (or outer) side, 2 acyl side, 3 side chain; on linkers, the order of the positions; unused ones are H or OH. Bridge positions count the residues as written; N and C are the ends. Square brackets hold non-standard residues; d marks the D form. Peptide text beside a SMILES is read from it. Pro(trans-4-F) = O=C(O)[C@@H]1C[C@@H](F)CN1; Bip = N[C@@H](Cc1ccc(-c2ccccc2)cc1)C(=O)O; Tpi = O=C(O)[C@@H]1Cc2c([nH]c3ccccc23)CN1; Dip = N[C@H](C(=O)O)C(c1ccccc1)c1ccccc1; X1 = O=C([C@@H]1Cc2ccccc2N1[*:1])[*:2]; 1Nal = N[C@@H](Cc1cccc2ccccc12)C(=O)O; TBMB = c1c(C[*:1])cc(C[*:3])cc1C[*:2]; NMeR = CN[C@@H](CCCNC(=N)N)C(=O)O; hArg = N=C(N)NCCCC[C@H](N)C(=O)O; 3Pal = N[C@@H](Cc1cccnc1)C(=O)O; 4Pal = N[C@@H](Cc1ccncc1)C(=O)O; Cha = N[C@@H](CC1CCCCC1)C(=O)O; Pip = O=C(O)[C@@H]1CCCCN1; Dpg = CCCC(N)(CCC)C(=O)O; Aze = O=C(O)[C@@H]1CCN1

Test: Plasma stability profiling method 1 (35% plasma, MALDI-TOF, qualitative)
Assay type: in vitro ADME, rat
Settings: 35% rat plasma, 37 deg C, method 1, comparative estimate
Method: Three methods were employed to assess the stability of bicycles (peptides conjugated to molecular scaffolds) in plasma.
A rapid plasma stability profiling assay was developed that employed mass spectrometric detection (MALDI-TOF, Voyager DE, Applied Biosystems) of the parent mass, until the time when the parent peptide mass was no longer observable. Specifically, 200 uM of peptide was incubated in the presence of 35% rat or human plasma (Sera labs, using citrate as anticoagulant) at 37 deg C., which was supplemented with 1×PBS (derived from a 10×PBS Stock, Sigma). At various time points (i.e. t=0, 3, 24 hrs, henceafter daily up to 10 days), 2 uL of sample was added to 18 uL of 30 mM ammonium bicarbonate in a 1:1 mixture of acetonitrile:H2O. Samples were frozen at −80 deg C. until the time of analysis. For mass spectrometric analysis that determines the approximate detection window of the peptide, the acetonitrile:H2O-diluted sample of a given time point was spotted directly (0.7 uL) onto the MALDI plate. Matrix (alpha-cyanocinnamic acid, Sigma, prepared as a saturated solution in 1:1 acetonitrile:water containing 0.1% trifluoroacetic acid) was layered over the sample (1 uL). At a similar laser intensity setting on the MALDI TOF, the time could then be determined until parent peptide was no longer detectable. It should be noted that this is a qualitative assay serves to detect relative changes in plasma stability.

| SMILES | Observable in rat plasma, for days |
| --- | --- |
| CC(=O)N[C@H]1CSCc2cc3cc(c2)CSC[C@H](NC(=O)[C@H](CCCCNC(=N)N)NC(=O)[C@H](C)NC(=O)[C@@H]2CCN2C(=O)[C@H](Cc2c[nH]c4ccccc24)NC(=O)[C@H](CO)NC1=O)C(=O)N[C@@H](CC(C)C)C(=O)N[C@@H](Cc1c[nH]cn1)C(=O)N[C@@H](CCC(N)=O)C(=O)N[C@@H](CC(=O)O)C(=O)N[C@@H](CC(C)C)C(=O)N[C@H](C(N)=O)CSC3 [Ac-(06-34-18) Aze3 HomoArg5] (Ac-CSW[Aze]A[hArg]CLHQDLC-NH2; linker 1-7-13 via TBMB) | >10 days |
| CC(=O)N[C@H]1CSCc2cc3cc(c2)CSC[C@H](NC(=O)[C@H](CCCNC(=N)N)NC(=O)[C@H](C)NC(=O)[C@@H]2CCCN2C(=O)[C@H](Cc2ccc(-c4ccccc4)cc2)NC(=O)[C@H](CO)NC1=O)C(=O)N[C@@H](CC(C)C)C(=O)N[C@@H](Cc1c[nH]cn1)C(=O)N[C@@H](CCC(N)=O)C(=O)N[C@@H](CC(=O)O)C(=O)N[C@@H](CC(C)C)C(=O)N[C@H](C(N)=O)CSC3 [Ac-(06-34-18) 4,4,BPal2] (Ac-CS[Bip]PARCLHQDLC-NH2; linker 1-7-13 via TBMB) | 2 days |
| CC(=O)N[C@H]1CSCc2cc3cc(c2)CSC[C@H](NC(=O)[C@H](CCCNC(=N)N)NC(=O)[C@H](C)NC(=O)[C@@H]2CCCN2C(=O)[C@H](Cc2cccnc2)NC(=O)[C@H](CO)NC1=O)C(=O)N[C@@H](CC(C)C)C(=O)N[C@@H](Cc1c[nH]cn1)C(=O)N[C@@H](CCC(N)=O)C(=O)N[C@@H](CC(=O)O)C(=O)N[C@@H](CC(C)C)C(=O)N[C@H](C(N)=O)CSC3 [Ac-(06-34-18) 3Pal2] (Ac-CS[3Pal]PARCLHQDLC-NH2; linker 1-7-13 via TBMB) | 2 days |
| CC(=O)N[C@H]1CSCc2cc3cc(c2)CSC[C@H](NC(=O)[C@H](CCCNC(=N)N)N(C)C(=O)[C@H](C)NC(=O)[C@@H]2CCN2C(=O)[C@H](Cc2c[nH]c4ccccc24)NC(=O)[C@H](CO)NC1=O)C(=O)N[C@@H](CC(C)C)C(=O)N[C@@H](Cc1c[nH]cn1)C(=O)N[C@@H](CCC(N)=O)C(=O)N[C@@H](CC(=O)O)C(=O)N[C@@H](CC(C)C)C(=O)N[C@H](C(N)=O)CSC3 [Ac-(06-34-18) Aze3 NMeArg5] (Ac-CSW[Aze]A[NMeR]CLHQDLC-NH2; linker 1-7-13 via TBMB) | >10 days |
| CC(=O)N[C@H]1CSCc2cc3cc(c2)CSC[C@H](NC(=O)[C@H](CCCNC(=N)N)NC(=O)[C@H](C)NC(=O)[C@@H]2CCCN2C(=O)[C@H](CC2CCCCC2)NC(=O)[C@H](CO)NC1=O)C(=O)N[C@@H](CC(C)C)C(=O)N[C@@H](Cc1c[nH]cn1)C(=O)N[C@@H](CCC(N)=O)C(=O)N[C@@H](CC(=O)O)C(=O)N[C@@H](CC(C)C)C(=O)N[C@H](C(N)=O)CSC3 [Ac-(06-34-18) Cha2] (Ac-CS[Cha]PARCLHQDLC-NH2; linker 1-7-13 via TBMB) | 2 days |
| CC(=O)N[C@H]1CSCc2cc3cc(c2)CSC[C@H](NC(=O)[C@H](CCCNC(=N)N)NC(=O)[C@H](C)NC(=O)[C@@H]2C[C@@H](F)CN2C(=O)[C@H](Cc2c[nH]c4ccccc24)NC(=O)[C@H](CO)NC1=O)C(=O)N[C@@H](CC(C)C)C(=O)N[C@@H](Cc1c[nH]cn1)C(=O)N[C@@H](CCC(N)=O)C(=O)N[C@@H](CC(=O)O)C(=O)N[C@@H](CC(C)C)C(=O)N[C@H](C(N)=O)CSC3 [Ac-(06-34-18) 4FluoPro3] (Ac-CSW[Pro(trans-4-F)]ARCLHQDLC-NH2; linker 1-7-13 via TBMB) | 2 days |
| CC(=O)N[C@H]1CSCc2cc3cc(c2)CSC[C@H](NC(=O)[C@H](CCCNC(=N)N)NC(=O)[C@H](C)NC(=O)[C@@H]2CCCN2C(=O)[C@H](Cc2ccncc2)NC(=O)[C@H](CO)NC1=O)C(=O)N[C@@H](CC(C)C)C(=O)N[C@@H](Cc1c[nH]cn1)C(=O)N[C@@H](CCC(N)=O)C(=O)N[C@@H](CC(=O)O)C(=O)N[C@@H](CC(C)C)C(=O)N[C@H](C(N)=O)CSC3 [Ac-(06-34-18) 4Pal2] (Ac-CS[4Pal]PARCLHQDLC-NH2; linker 1-7-13 via TBMB) | 2 days |
| CC(=O)N[C@H]1CSCc2cc3cc(c2)CSC[C@H](NC(=O)[C@H](CCCNC(=N)N)NC(=O)[C@H](C)NC(=O)[C@@H]2CCCN2C(=O)[C@H](Cc2cccc4ccccc24)NC(=O)[C@H](CO)NC1=O)C(=O)N[C@@H](CC(C)C)C(=O)N[C@@H](Cc1c[nH]cn1)C(=O)N[C@@H](CCC(N)=O)C(=O)N[C@@H](CC(=O)O)C(=O)N[C@@H](CC(C)C)C(=O)N[C@H](C(N)=O)CSC3 [Ac-(06-34-18) 1NAL2] (Ac-CS[1Nal]PARCLHQDLC-NH2; linker 1-7-13 via TBMB) | 2 days |
| CC(=O)N[C@H]1CSCc2cc3cc(c2)CSC[C@H](NC(=O)[C@H](CCCNC(=N)N)NC(=O)[C@H](C)NC(=O)[C@@H]2CCCN2C(=O)[C@H](C(c2ccccc2)c2ccccc2)NC(=O)[C@H](CO)NC1=O)C(=O)N[C@@H](CC(C)C)C(=O)N[C@@H](Cc1c[nH]cn1)C(=O)N[C@@H](CCC(N)=O)C(=O)N[C@@H](CC(=O)O)C(=O)N[C@@H](CC(C)C)C(=O)N[C@H](C(N)=O)CSC3 [Ac-(06-34-18) 3,3-DPA2] (Ac-CS[Dip]PARCLHQDLC-NH2; linker 1-7-13 via TBMB) | 2 days |

The remaining lines, values ahead:

| Observable in rat plasma, for days | SMILES |
| --- | --- |
| 2 days | CC(=O)N[C@H]1CSCc2cc3cc(c2)CSC[C@H](NC(=O)[C@H](CCCNC(=N)N)NC(=O)[C@H](CO)NC(=O)[C@@H]2CCCN2C(=O)[C@H](Cc2c[nH]c4ccccc24)NC(=O)[C@H](CO)NC1=O)C(=O)N[C@@H](CC(C)C)C(=O)N[C@@H](Cc1c[nH]cn1)C(=O)N[C@@H](CCC(N)=O)C(=O)N[C@@H](CC(=O)O)C(=O)N[C@@H](CC(C)C)C(=O)N[C@H](C(N)=O)CSC3 [Ac-(06-34-18) WPSR] (Ac-CSWPSRCLHQDLC-NH2; linker 1-7-13 via TBMB) |
| 2 days | CC(=O)N[C@H]1CSCc2cc3cc(c2)CSC[C@H](NC(=O)[C@H](CCCNC(=N)N)NC(=O)[C@H](C)NC(=O)[C@@H]2Cc4c([nH]c5ccccc45)CN2C(=O)[C@H](Cc2c[nH]c4ccccc24)NC(=O)[C@H](CO)NC1=O)C(=O)N[C@@H](CC(C)C)C(=O)N[C@@H](Cc1c[nH]cn1)C(=O)N[C@@H](CCC(N)=O)C(=O)N[C@@H](CC(=O)O)C(=O)N[C@@H](CC(C)C)C(=O)N[C@H](C(N)=O)CSC3 [Ac-(06-34-18) NorHar3] (Ac-CSW[Tpi]ARCLHQDLC-NH2; linker 1-7-13 via TBMB) |
| 2 days | CC(=O)N[C@H]1CSCc2cc3cc(c2)CSC[C@H](NC(=O)[C@H](CCCNC(=N)N)NC(=O)[C@H](C)NC(=O)[C@@H]2CCCCN2C(=O)[C@H](Cc2c[nH]c4ccccc24)NC(=O)[C@H](CO)NC1=O)C(=O)N[C@@H](CC(C)C)C(=O)N[C@@H](Cc1c[nH]cn1)C(=O)N[C@@H](CCC(N)=O)C(=O)N[C@@H](CC(=O)O)C(=O)N[C@@H](CC(C)C)C(=O)N[C@H](C(N)=O)CSC3 [Ac-(06-34-18) Pip3] (Ac-CSW[Pip]ARCLHQDLC-NH2; linker 1-7-13 via TBMB) |
| 2 days | CCCC1(CCC)NC(=O)[C@@H](NC(C)=O)CSCc2cc3cc(c2)CSC[C@H](NC(=O)[C@H](CCCNC(=N)N)NC(=O)[C@H](C)NC(=O)[C@@H]2CCCN2C(=O)[C@H](Cc2c[nH]c4ccccc24)NC1=O)C(=O)N[C@@H](CC(C)C)C(=O)N[C@@H](Cc1c[nH]cn1)C(=O)N[C@@H](CCC(N)=O)C(=O)N[C@@H](CC(=O)O)C(=O)N[C@@H](CC(C)C)C(=O)N[C@H](C(N)=O)CSC3 [Ac-(06-34-18) Dpg1] (Ac-C[Dpg]WPARCLHQDLC-NH2; linker 1-7-13 via TBMB) |
| 2 days | CC(=O)N[C@H]1CSCc2cc3cc(c2)CSC[C@H](NC(=O)[C@H](CCCNC(=N)N)NC(=O)[C@H](C)NC(=O)[C@@H]2CCCN2C(=O)[C@@H]2Cc4c([nH]c5ccccc45)CN2C(=O)[C@H](CO)NC1=O)C(=O)N[C@@H](CC(C)C)C(=O)N[C@@H](Cc1c[nH]cn1)C(=O)N[C@@H](CCC(N)=O)C(=O)N[C@@H](CC(=O)O)C(=O)N[C@@H](CC(C)C)C(=O)N[C@H](C(N)=O)CSC3 [Ac-(06-34-18) NorHar2] (Ac-CS[Tpi]PARCLHQDLC-NH2; linker 1-7-13 via TBMB) |
| 2 days | CC(=O)N[C@H]1CSCc2cc3cc(c2)CSC[C@H](NC(=O)[C@H](CCCNC(=N)N)NC(=O)[C@H](C)NC(=O)[C@@H]2Cc4ccccc4N2C(=O)[C@H](Cc2c[nH]c4ccccc24)NC(=O)[C@H](CO)NC1=O)C(=O)N[C@@H](CC(C)C)C(=O)N[C@@H](Cc1c[nH]cn1)C(=O)N[C@@H](CCC(N)=O)C(=O)N[C@@H](CC(=O)O)C(=O)N[C@@H](CC(C)C)C(=O)N[C@H](C(N)=O)CSC3 [Ac-(06-34-18) Ind3] (Ac-CSW[X1]ARCLHQDLC-NH2; linker 1-7-13 via TBMB) |
